Measured values reported in patent US11298366B2, “Ibandronate conjugates of nucleoside antimetabolites” (MBC Pharma, Inc., priority 2017, dated 2022).

Columns and labels:
[1] = system: MDA-MB-231-luc-D3H2LN cells; experiment: Survival in a rodent model of breast cancer (intracardiac injection of MDA-MB-231-luc-D3H2LN cells); assay type: in vivo, Female Harlan nude mice (Hsd:Athymic Nude-Foxn1nu); details: for effect on survival (Kaplan-Meier, FIG. 1): intraperitoneal QDx5 from day 22 after implantation, 5 mg/kg gemcitabine-ibandronate conjugate, 6 mg/mg gemcitabine-etidronate conjugate, equimolar free etidronate, ibandronate, gemcitabine, groups of 10
Method: FIG. 1 provides Kaplan-Meier survival curves: a murine model of breast cancer of mice treated with saline gemcitabine-ibandronate conjugate (GEM-IB) or gemcitabine-etidronate conjugate (GEM-ET).
Female Harlan nude mice (Hsd:Athymic Nude-Foxn1nu) of 8 weeks age were administered a 100 uL intracardiac injection of MDA-MB-231-luc-D3H2LN cells (Caliper/Xenogen) at106 cells/mL in Dulbecco's Phosphate Buffered Saline. Twenty-two days after implantation the animals were randomized into groups of 10. Each group received one of the following agents 5 days per week (QDx5) as a 100 uL intraperitoneal injection to achieve a dosing of: saline, 5 mg/kg gemcitabine-ibandronate conjugate, 6 mg/mg gemcitabine-etidronate conjugate, equimolar free etidronate, equimolar free ibandronate, equimolar free gemcitabine.

[2] = system: 22 RV1-Luc+ prostate cancer cells; experiment: Incidence of distal metastases in a rodent model of prostate cancer induced bone disease (intratibial 22 RV1-Luc+ cells); assay type: in vivo, male SCID mice; details: day 34 and day 41; for percent of mice with distal metastases (FIG. 3): 2 mg/kg gemcitabine-ibandronate conjugate or molar equivalent, intraperitoneal QDx5 from day 7, versus saline
Method: Mice were treated with saline, or equimolar doses of ibandronate (Iband), gemcitabine (Gem), gemcitabine-etidronate conjugate (Gem-Eti), or with the gemcitabine-ibandronate conjugate 5 (Gem-Ibad).
As above in example 5, six-week old male SCID mice were injected with 10 uL of 10^6 22 RV1-Luc+ prostate cancer cells into the tibia. Luminescence on day 6 confirmed implantation and mice were randomized into groups of 10-13 and began dosing on day 7. Mice received intraperitoneal injections QDx5 (5 days/week) of saline or 2 mg/kg gemcitibine-ibandronate conjugate or the molar equivalent of gemcitabine-etidronate conjugate, free ibandronate, or free gemcitibine until the end of week 6 and were imaged every 7 days. A Xenogen imaging station was used to visualize tumor cells and metastases distal to the tibial site of implantation.

[3] = system: 22 RV1-Luc+ prostate cancer cells; experiment: Survival and tumor imaging in a rodent model of prostate cancer induced bone disease (intratibial 22 RV1-Luc+ cells); assay type: in vivo, male SCID mice
Method: Six-week old male SCID mice were injected with 10 uL of 10^6 22 RV1-Luc+ prostate cancer cells into the tibia. Luminescence on day 6 confirmed implantation and mice were randomized into groups of 10 and began dosing on day 7. Mice received intraperitoneal injections 5 days/week of saline or 2 mg/kg gemcitibine-ibandronate conjugate (compound 5, example 1) until the end of week 6 and were imaged every 7 days. A Xenogen imaging station was used to visualize tumor cells; the heat map from light blue to red indicates increasing tumor cells numbers.

Row | Compound | effect on survival (Kaplan-Meier, FIG. 1) [1] | percent of mice with distal metastases (FIG. 3) [2] | survival benefit compared with the other treatments ([1]; intraperitoneal QDx5, 5 mg/kg gemcitabine-ibandronate conjugate versus 6 mg/mg gemcitabine-etidronate conjugate) | mice alive at the end of 42 days (FIG. 2) ([3]; 2 mg/kg intraperitoneal 5 days/week from day 7 until end of week 6, groups of 10, saline control 6 of 10 alive) | cancer cells present by Xenogen image analysis ([3]; 2 mg/kg intraperitoneal 5 days/week, from day 28 and later, versus saline) | benefit on distal metastases compared with the other treatments ([2]; 2 mg/kg intraperitoneal QDx5)
1 | CCCCCN(C)CCC(O)(P(=O)(O)O)P(=O)(O)O [ibandronate] | did not have a significant effect on survival |  |  |  |  | 
2 | Nc1ccn([C@@H]2O[C@H](CO)[C@@H](O)C2(F)F)c(=O)n1 [gemcitabine, Gemcitabine] | did not have a significant effect on survival |  |  |  |  | 
3 | gemcitabine-etidronate conjugate [reference compound] | improved survival | reduced the percent of mice with distal metastases |  |  |  | 
4 | CC(O)(P(=O)(O)O)P(=O)(O)O [etidronate] | did not have a significant effect on survival |  |  |  |  | 
5 | CCCCCN(C)CCC(O)(P(=O)(O)O)P(=O)(O)OP(=O)(O)OC[C@H]1O[C@@H](n2ccc(N)nc2=O)C(F)(F)C1O (some centres unmarked) [conjugate 5, Gemcitabine-Ibandronate Conjugate] | improved survival | reduced the percent of mice with distal metastases | greatest benefit | all mice treated with the compound 5 (example 1) were alive | less cancer cells are present | superior benefit
